# Test system: K12877-001-R-J1-PDC complex spheroid viability
# Assay: Anticancer human tumor K12877-001-R-J1-PDC patient-derived lung adenocarcinoma cell line growth inhibition [RAS]
# Conditions: for IC50: curve of first compound; for viability, T/C: stronger effect = lower value
# In short: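 Tumour cells grown as complex spheroids with HUVEC endothelial cells and mesenchymal stem cells, treated with RAS pathway inhibitor combinations. Each agent spans half-log steps from near clinical Cmax, or 10 microM where Cmax is unknown.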
# 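Also: spheroids exposed to agents for one week before readout.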
# 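For viability, T/C in this document: tumour cells co-cultured with HUVEC and mesenchymal stem cells in spheroids.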
smiles,measurement,setting,value
O=C(c1ccc(F)c(F)c1Nc1ccc(I)cc1F)N1CC(O)([C@@H]2CCCCN2)C1 + C#Cc1c(F)ccc2cc(O)cc(-c3ncc4c(N5CC6CCC(C5)N6)nc(OCC56CCCN5CC(F)C6)nc4c3F)c12,IC50,second compound 0.0316 µM,> 1000 nM
same,IC50,second compound 0.1 µM,> 1000 nM
same,IC50,second compound 0.316 µM,> 1000 nM
same,IC50,second compound 1 µM,> 1000 nM
same,IC50,second compound 3.16 µM,> 1000 nM
same,IC50,second compound 10 µM,> 1000 nM
same,"viability, T/C","second compound 0.0316 µM, first compound 0.00316 µM",119%
same,"viability, T/C","second compound 0.0316 µM, first compound 0.01 µM",102%
same,"viability, T/C","second compound 0.0316 µM, first compound 0.0316 µM",102%
same,"viability, T/C","second compound 0.0316 µM, first compound 0.1 µM",81.9%
same,"viability, T/C","second compound 0.0316 µM, first compound 0.316 µM",77.9%
same,"viability, T/C","second compound 0.0316 µM, first compound 1 µM",58%
same,"viability, T/C","second compound 0.1 µM, first compound 0.00316 µM",110%
same,"viability, T/C","second compound 0.1 µM, first compound 0.01 µM",107%
same,"viability, T/C","second compound 0.1 µM, first compound 0.0316 µM",91.5%
same,"viability, T/C","second compound 0.1 µM, first compound 0.1 µM",92.8%
same,"viability, T/C","second compound 0.1 µM, first compound 0.316 µM",82.3%
same,"viability, T/C","second compound 0.1 µM, first compound 1 µM",57.1%
same,"viability, T/C","second compound 0.316 µM, first compound 0.00316 µM",108%
same,"viability, T/C","second compound 0.316 µM, first compound 0.01 µM",104%
same,"viability, T/C","second compound 0.316 µM, first compound 0.0316 µM",94.9%
same,"viability, T/C","second compound 0.316 µM, first compound 0.1 µM",84.7%
same,"viability, T/C","second compound 0.316 µM, first compound 0.316 µM",74%
same,"viability, T/C","second compound 0.316 µM, first compound 1 µM",62.9%
same,"viability, T/C","second compound 1 µM, first compound 0.00316 µM",105%
same,"viability, T/C","second compound 1 µM, first compound 0.01 µM",116%
same,"viability, T/C","second compound 1 µM, first compound 0.0316 µM",87.9%
same,"viability, T/C","second compound 1 µM, first compound 0.1 µM",93.7%
same,"viability, T/C","second compound 1 µM, first compound 0.316 µM",77.7%
same,"viability, T/C","second compound 1 µM, first compound 1 µM",58.1%
same,"viability, T/C","second compound 3.16 µM, first compound 0.00316 µM",110%
same,"viability, T/C","second compound 3.16 µM, first compound 0.01 µM",103%
same,"viability, T/C","second compound 3.16 µM, first compound 0.0316 µM",92.8%
same,"viability, T/C","second compound 3.16 µM, first compound 0.1 µM",86.5%
same,"viability, T/C","second compound 3.16 µM, first compound 0.316 µM",75.7%
same,"viability, T/C","second compound 3.16 µM, first compound 1 µM",62.9%
same,"viability, T/C","second compound 10 µM, first compound 0.00316 µM",102%
same,"viability, T/C","second compound 10 µM, first compound 0.01 µM",84.4%
same,"viability, T/C","second compound 10 µM, first compound 0.0316 µM",82.8%
same,"viability, T/C","second compound 10 µM, first compound 0.1 µM",85.6%
same,"viability, T/C","second compound 10 µM, first compound 0.316 µM",78.9%
same,"viability, T/C","second compound 10 µM, first compound 1 µM",63.8%
CC(Nc1ccc2c(c1)OCCn1cc(N3C(=O)OCC3C(F)F)nc1-2)C(N)=O (stereo unspecified),"viability, T/C",compound 0.0316 µM,91.3% [middle of 4 runs]
same,"viability, T/C",compound 1 µM,69.9% [middle of 4 runs]
NC1c2ccccc2OC12CCN(c1cnc3c(N4CCCc5ncccc54)n[nH]c3n1)CC2 (stereo unspecified) + CCn1c(-c2cccnc2C(C)OC)c2c3cc(ccc31)N1CCOC(CC(NC(=O)C(C(C)C)N(C)C(=O)C3(F)CCN(C(=O)C#CC(C)(C)N(C)C)CC3)C(=O)N3CCCC(N3)C(=O)OCC(C)(C)C2)C1,IC50,second compound 0.000949 µM,580 nM
same,IC50,second compound 0.003 µM,509 nM
same,IC50,second compound 0.00949 µM,225 nM
same,IC50,second compound 0.03 µM,145 nM
same,IC50,second compound 0.0949 µM,136 nM
same,IC50,second compound 0.3 µM,67.7 nM
same,"viability, T/C","second compound 0.000949 µM, first compound 0.0316 µM",69%
same,"viability, T/C","second compound 0.000949 µM, first compound 0.1 µM",67.8%
same,"viability, T/C","second compound 0.000949 µM, first compound 0.316 µM",56%
same,"viability, T/C","second compound 0.000949 µM, first compound 1 µM",43.8%
same,"viability, T/C","second compound 0.000949 µM, first compound 3.16 µM",38.5%
same,"viability, T/C","second compound 0.000949 µM, first compound 10 µM",34%
same,"viability, T/C","second compound 0.003 µM, first compound 0.0316 µM",65.8%
same,"viability, T/C","second compound 0.003 µM, first compound 0.1 µM",62.2%
same,"viability, T/C","second compound 0.003 µM, first compound 0.316 µM",52.5%
same,"viability, T/C","second compound 0.003 µM, first compound 1 µM",45.4%
same,"viability, T/C","second compound 0.003 µM, first compound 3.16 µM",37%
same,"viability, T/C","second compound 0.003 µM, first compound 10 µM",30%
same,"viability, T/C","second compound 0.00949 µM, first compound 0.0316 µM",76.9%
same,"viability, T/C","second compound 0.00949 µM, first compound 0.1 µM",54.1%
same,"viability, T/C","second compound 0.00949 µM, first compound 0.316 µM",49.5%
same,"viability, T/C","second compound 0.00949 µM, first compound 1 µM",38.5%
same,"viability, T/C","second compound 0.00949 µM, first compound 3.16 µM",37.6%
same,"viability, T/C","second compound 0.00949 µM, first compound 10 µM",28.9%
same,"viability, T/C","second compound 0.03 µM, first compound 0.0316 µM",65.9%
same,"viability, T/C","second compound 0.03 µM, first compound 0.1 µM",50.9%
same,"viability, T/C","second compound 0.03 µM, first compound 0.316 µM",44.9%
same,"viability, T/C","second compound 0.03 µM, first compound 1 µM",39.3%
same,"viability, T/C","second compound 0.03 µM, first compound 3.16 µM",34.5%
same,"viability, T/C","second compound 0.03 µM, first compound 10 µM",30.8%
same,"viability, T/C","second compound 0.0949 µM, first compound 0.0316 µM",62.4%
same,"viability, T/C","second compound 0.0949 µM, first compound 0.1 µM",52.1%
same,"viability, T/C","second compound 0.0949 µM, first compound 0.316 µM",41.8%
same,"viability, T/C","second compound 0.0949 µM, first compound 1 µM",38.3%
same,"viability, T/C","second compound 0.0949 µM, first compound 3.16 µM",39.1%
same,"viability, T/C","second compound 0.0949 µM, first compound 10 µM",27.4%
same,"viability, T/C","second compound 0.3 µM, first compound 0.0316 µM",58.3%
same,"viability, T/C","second compound 0.3 µM, first compound 0.1 µM",46.9%
same,"viability, T/C","second compound 0.3 µM, first compound 0.316 µM",35%
same,"viability, T/C","second compound 0.3 µM, first compound 1 µM",29.1%
same,"viability, T/C","second compound 0.3 µM, first compound 3.16 µM",29.8%
same,"viability, T/C","second compound 0.3 µM, first compound 10 µM",22.8%

# — PubChem BioAssay AID2060894 (Molecular Pharmacology Branch, DTP, NCI, 2025)
